Values of other authors as cited in patent publication US6815453B1, “Cosmetic and dermatological light protection formulations having a content of triazine derivatives and glyceryl compounds” (Beiersdorf AG, priority 1996, dated 2004).

CCCCC(CC)COC(=O)c1ccc(Nc2nc(Nc3ccc(C(=O)OCC(CC)CCCC)cc3)nc(Nc3ccc(C(=O)OCC(CC)CCCC)cc3)n2)cc1 (stereo not drawn) [UVINUL® T 150, 4,4′,4″-(1,3,5-triazine-2,4,6-triyltriimino)-trisbenzoic acid tris(2-ethylhexyl ester)]
corresponding dissolved, and therefore active, UV filter substance (corresponding to the maximum solubility in known solvents): 1-1.5 % by weight
maximum amount of the filter dissolved by known solvents (known solvents for this UVB filter, prior-art statement): ≤ 15 % by weight
solubility in lipids (stated in words as the main disadvantage): poor solubility in lipids
